Reference: patent publication US20180320217A1, “METHODS FOR SAMPLING AND MEASURING ORAL LAVAGE PROTEINS” (The Procter & Gamble Company, priority 2017, published 2018)
Where “and” joins values, the source holds several entries; their conditions need not be identical. Equal entries are not always repeated. Entries after “also recorded” stand apart in the source; their conditions may differ.

How the values were obtained:
diaphorase [1] = experiment: Effect of concentrations of tetrazolium salts on formation of formazan dyes (FIGS. 4A-4G); format: biochemical; settings: 15 mM NADH+H, 20 μg diaphorase, pH 7.5; FIGS. 4A to 4G
Method: On the idea that higher concentrations of tetrazolium salts in the assay buffer would likely result in more formazan dyes in the reaction, various concentrations of tetrazolium salts were added to a reaction buffer and the formation of formazan dyes were measured at 0, 30 and 60 minutes. […] The reactions were performed at room temperature. Absorbance was taken at 0, 30 and 60 minutes.

Malate dehydrogenase [2] = biological target: T1, Malate dehydrogenase (Sus scrofa, UniProt P00346); experiment: Formation of formazan dyes: Malate dehydrogenase, malate and 1-Methoxy PMS (TABLE 18); format: biochemical, pig heart; design: L-malate dehydrogenase (pig heart); purchased Sigma-Aldrich 10127248001 / 10127914001; settings: monosodium salt
T1 sequence (P00346 25-338): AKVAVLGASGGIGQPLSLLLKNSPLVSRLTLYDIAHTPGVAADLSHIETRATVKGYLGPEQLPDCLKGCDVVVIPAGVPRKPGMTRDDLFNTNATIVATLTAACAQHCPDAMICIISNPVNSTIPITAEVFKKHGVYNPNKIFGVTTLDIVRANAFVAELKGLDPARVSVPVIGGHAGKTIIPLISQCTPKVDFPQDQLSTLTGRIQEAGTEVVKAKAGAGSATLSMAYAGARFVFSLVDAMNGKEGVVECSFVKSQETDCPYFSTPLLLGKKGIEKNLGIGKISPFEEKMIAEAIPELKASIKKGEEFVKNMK

diaphorase [3] = experiment: Formation of formazan dyes: NADH, diaphorase and malate (TABLE 8); format: biochemical, Clostridium kluyveri
[4] = Formation of formazan dyes: control buffer, malate and 1-Methoxy PMS (TABLE 22); format: biochemical
[5] = Formation of formazan dyes: NADH, malate and 1-methoxy PMS (TABLE 16); format: biochemical; settings: monosodium salt
oral lavage [6] = experiment: Formation of formazan dyes: oral lavage, malate and diaphorase (TABLE 12); format: biochemical, human; settings: oral lavage, malate and diaphorase
[7] = tested on: Malate dehydrogenase and diaphorase; experiment: Formation of formazan dyes: Malate dehydrogenase, diaphorase and malate (TABLE 10); format: biochemical, pig heart
diaphorase [8] = experiment: Formation of formazan dyes: NADH and diaphorase, absence of malate (TABLE 7); format: biochemical, Clostridium kluyveri; settings: NADH and diaphorase, absence of malate
[9] = Formation of formazan dyes: control buffer and 1-Methoxy PMS, absence of malate (TABLE 21); format: biochemical; settings: monosodium salt
diaphorase [10] = experiment: Formation of formazan dyes: only diaphorase and malate (TABLE 14); format: biochemical, Clostridium kluyveri; settings: mean of three experiments
oral lavage [11] = experiment: Formation of formazan dyes: oral lavage and diaphorase, not malate (TABLE 11); format: biochemical, human
oral lavage [12] = experiment: Formation of formazan dyes: oral lavage, malate and 1-Methoxy PMS (TABLE 20); format: biochemical, human; settings: monosodium salt
[13] = Formation of formazan dyes: NADH and 1-methoxy PMS, absence of malate (TABLE 15); format: biochemical; settings: monosodium salt
Malate dehydrogenase [14] = biological target: T1, Malate dehydrogenase; experiment: Formation of formazan dyes: Malate dehydrogenase and 1-Methoxy PMS, absence of malate (TABLE 17); format: biochemical, pig heart; design: L-malate dehydrogenase (pig heart); purchased Sigma-Aldrich 10127248001 / 10127914001
oral lavage [15] = experiment: Formation of formazan dyes: oral lavage and 1-Methoxy PMS, absence of malate (TABLE 19); format: biochemical, human; settings: monosodium salt
[16] = tested on: Malate dehydrogenase and diaphorase; experiment: Formation of formazan dyes: Malate dehydrogenase and diaphorase, absence of malate (TABLE 9); format: biochemical, pig heart
diaphorase [17] = experiment: Formation of formazan dyes: only diaphorase, not malate (TABLE 13); format: biochemical, Clostridium kluyveri; settings: mean of three experiments

## COc1cc([N+](=O)[O-])ccc1-[n+]1nc(-c2ccccc2S(=O)(=O)O)nn1-c1ccc([N+](=O)[O-])cc1 [EZMTT]
Diaphorase [1]
  concentration of tetrazolium salt at which absorbance reached peaks: 2 mM

## O=[N+]([O-])c1ccc(-[n+]2nc(-c3ccc(S(=O)(=O)[O-])cc3S(=O)(=O)[O-])nn2-c2ccc(I)cc2)cc1.[Na+] [WST-1, 2-(4-Iodophenyl)-3-(4-nitrophenyl)-5-(2,4-disulfophenyl)-2H-tetrazolium, monosodium salt]
Malate dehydrogenase [2]
  Absorbance, formation of formazan dyes (Means): 0.51 and 0.64 and 0.72 and 0.79
Diaphorase [3]; NADH, diaphorase and malate, 0 h
  Formation of formazan dyes, absorbance, Means 0 h: 2.63
Diaphorase [3]; NADH, diaphorase and malate, 1 h
  Formation of formazan dyes, absorbance, Means 1 h: 2.60
Diaphorase [3]; NADH, diaphorase and malate, 2 h
  Formation of formazan dyes, absorbance, Means 2 h: 2.59
Diaphorase [3]; NADH, diaphorase and malate, 3 h
  Formation of formazan dyes, absorbance, Means 3 h: 2.57
Diaphorase [3]; NADH, diaphorase and malate, 4 h
  Formation of formazan dyes, absorbance, Means 4 h: 2.55
Diaphorase [3]; NADH, diaphorase and malate, 6 h
  Formation of formazan dyes, absorbance, Means 6 h: 2.52
Diaphorase [3]; NADH, diaphorase and malate, 8 h
  Formation of formazan dyes, absorbance, Means 8 h: 2.48
Diaphorase [3]; NADH, diaphorase and malate, 10 h
  Formation of formazan dyes, absorbance, Means 10 h: 2.44
Diaphorase [3]; NADH, diaphorase and malate, 12 h
  Formation of formazan dyes, absorbance, Means 12 h: 2.38
Diaphorase [3]; TABLE 8 compared with TABLE 7
  level reduced to formazan dyes in the presence of malate: lower level
[4]
  Means absorbance 0 h: 0.31
  Means absorbance 1 h: 0.31
  Means absorbance 2 h: 0.32
  Means absorbance 3 h: 0.32
[5]
  Absorbance, formation of formazan dyes (Means): 1.83 and 1.81 and 1.79
Oral lavage [6]; 0 h
  Formation of formazan dyes, absorbance, Means 0 h: 0.88
Oral lavage [6]; 1 h
  Formation of formazan dyes, absorbance, Means 1 h: 1.19
Oral lavage [6]; 2 h
  Formation of formazan dyes, absorbance, Means 2 h: 1.19
Oral lavage [6]; 3 h
  Formation of formazan dyes, absorbance, Means 3 h: 1.23
Oral lavage [6]; 4 h
  Formation of formazan dyes, absorbance, Means 4 h: 1.39
Oral lavage [6]; 6 h
  Formation of formazan dyes, absorbance, Means 6 h: 1.31
Oral lavage [6]; 8 h
  Formation of formazan dyes, absorbance, Means 8 h: 1.52
Oral lavage [6]; 10 h
  Formation of formazan dyes, absorbance, Means 10 h: 1.61
Oral lavage [6]; 12 h
  Formation of formazan dyes, absorbance, Means 12 h: 1.75
[7]; Malate dehydrogenase, diaphorase and malate, 0 h
  Formation of formazan dyes, absorbance, Means 0 h: 0.84
[7]; Malate dehydrogenase, diaphorase and malate, 1 h
  Formation of formazan dyes, absorbance, Means 1 h: 1.15
[7]; Malate dehydrogenase, diaphorase and malate, 2 h
  Formation of formazan dyes, absorbance, Means 2 h: 1.31
[7]; Malate dehydrogenase, diaphorase and malate, 3 h
  Formation of formazan dyes, absorbance, Means 3 h: 1.44
[7]; Malate dehydrogenase, diaphorase and malate, 4 h
  Formation of formazan dyes, absorbance, Means 4 h: 1.53
[7]; Malate dehydrogenase, diaphorase and malate, 6 h
  Formation of formazan dyes, absorbance, Means 6 h: 1.69
[7]; Malate dehydrogenase, diaphorase and malate, 8 h
  Formation of formazan dyes, absorbance, Means 8 h: 1.81
[7]; Malate dehydrogenase, diaphorase and malate, 10 h
  Formation of formazan dyes, absorbance, Means 10 h: 1.90
[7]; Malate dehydrogenase, diaphorase and malate, 12 h
  Formation of formazan dyes, absorbance, Means 12 h: 1.96
[7]; malate dehydrogenase, diaphorase and malate (TABLE 10), monosodium salt
  conversion to reduced formazan dyes: converted to reduced formazan dyes in a time-dependent fashion; also recorded: able to catalyze the reduction
Diaphorase [8]; 0 h
  Formation of formazan dyes, absorbance, Means 0 h: 3.54
Diaphorase [8]; 1 h
  Formation of formazan dyes, absorbance, Means 1 h: 3.60
Diaphorase [8]; 2 h
  Formation of formazan dyes, absorbance, Means 2 h: 3.59
Diaphorase [8]; 3 h
  Formation of formazan dyes, absorbance, Means 3 h: 3.60
Diaphorase [8]; 4 h
  Formation of formazan dyes, absorbance, Means 4 h: 3.59
Diaphorase [8]; 6 h
  Formation of formazan dyes, absorbance, Means 6 h: 3.59
Diaphorase [8]; 8 h
  Formation of formazan dyes, absorbance, Means 8 h: 3.55
Diaphorase [8]; 10 h
  Formation of formazan dyes, absorbance, Means 10 h: 3.52
Diaphorase [8]; 12 h
  Formation of formazan dyes, absorbance, Means 12 h: 3.45
[9]
  Absorbance, formation of formazan dyes (Means): 0.53 and 0.74 and 0.65 and 0.88
Diaphorase [10]; 0 h
  Absorbance, formation of formazan dyes (Means): 0.20
Diaphorase [10]; 1 h
  Absorbance, formation of formazan dyes (Means): 0.22
Diaphorase [10]; 2 h
  Absorbance, formation of formazan dyes (Means): 0.23
Diaphorase [10]; 3 h
  Absorbance, formation of formazan dyes (Means): 0.24
Diaphorase [10]; 4 h
  Absorbance, formation of formazan dyes (Means): 0.24
Diaphorase [10]; 6 h
  Absorbance, formation of formazan dyes (Means): 0.25
Diaphorase [10]; 8 h
  Absorbance, formation of formazan dyes (Means): 0.26
Diaphorase [10]; 10 h
  Absorbance, formation of formazan dyes (Means): 0.27
Diaphorase [10]; 12 h
  Absorbance, formation of formazan dyes (Means): 0.27
Oral lavage [11]; oral lavage and diaphorase, not malate, 0 h
  Formation of formazan dyes, absorbance, Means 0 h: 1.01
Oral lavage [11]; oral lavage and diaphorase, not malate, 1 h
  Formation of formazan dyes, absorbance, Means 1 h: 1.24
Oral lavage [11]; oral lavage and diaphorase, not malate, 2 h
  Formation of formazan dyes, absorbance, Means 2 h: 1.28
Oral lavage [11]; oral lavage and diaphorase, not malate, 3 h
  Formation of formazan dyes, absorbance, Means 3 h: 1.30
Oral lavage [11]; oral lavage and diaphorase, not malate, 4 h
  Formation of formazan dyes, absorbance, Means 4 h: 1.29
Oral lavage [11]; oral lavage and diaphorase, not malate, 6 h
  Formation of formazan dyes, absorbance, Means 6 h: 1.42
Oral lavage [11]; oral lavage and diaphorase, not malate, 8 h
  Formation of formazan dyes, absorbance, Means 8 h: 1.34
Oral lavage [11]; oral lavage and diaphorase, not malate, 10 h
  Formation of formazan dyes, absorbance, Means 10 h: 1.31
Oral lavage [11]; oral lavage and diaphorase, not malate, 12 h
  Formation of formazan dyes, absorbance, Means 12 h: 1.42
Oral lavage [11]; pooled oral lavage of high bleeder group, diaphorase, no added malate (TABLE 11)
  reduction to formazan dyes by pooled oral lavage: partially reduced to formazan dyes
Oral lavage [12]
  Absorbance, formation of formazan dyes (Means): 1.20 and 1.68 and 2.01 and 2.32
[13]
  Absorbance, formation of formazan dyes (Means): 2.52 and 2.71 and 2.59 and 2.80
Malate dehydrogenase [14]
  reduction by malate dehydrogenase alone: did not catalyze the reduction
Malate dehydrogenase [14]; monosodium salt
  Absorbance, formation of formazan dyes (Means): 0.51 and 0.71 and 0.59 and 0.90
Oral lavage [15]
  Absorbance, formation of formazan dyes (Means): 1.19 and 1.52 and 1.61 and 1.76
[16]; Malate dehydrogenase and diaphorase, absence of malate, 0 h
  Formation of formazan dyes, absorbance, Means 0 h: 0.76
[16]; Malate dehydrogenase and diaphorase, absence of malate, 1 h
  Formation of formazan dyes, absorbance, Means 1 h: 1.13
[16]; Malate dehydrogenase and diaphorase, absence of malate, 2 h
  Formation of formazan dyes, absorbance, Means 2 h: 1.28
[16]; Malate dehydrogenase and diaphorase, absence of malate, 3 h
  Formation of formazan dyes, absorbance, Means 3 h: 1.38
[16]; Malate dehydrogenase and diaphorase, absence of malate, 4 h
  Formation of formazan dyes, absorbance, Means 4 h: 1.47
[16]; Malate dehydrogenase and diaphorase, absence of malate, 6 h
  Formation of formazan dyes, absorbance, Means 6 h: 1.60
[16]; Malate dehydrogenase and diaphorase, absence of malate, 8 h
  Formation of formazan dyes, absorbance, Means 8 h: 1.71
[16]; Malate dehydrogenase and diaphorase, absence of malate, 10 h
  Formation of formazan dyes, absorbance, Means 10 h: 1.78
[16]; Malate dehydrogenase and diaphorase, absence of malate, 12 h
  Formation of formazan dyes, absorbance, Means 12 h: 1.75
[16]; malate dehydrogenase and diaphorase (TABLE 9)
  reduction of tetrazolium dye in the absence of substrate malate: partially reduced
Diaphorase [17]; 0 h
  Absorbance, formation of formazan dyes (Means): 0.41
Diaphorase [17]; 1 h
  Absorbance, formation of formazan dyes (Means): 0.60
Diaphorase [17]; 2 h
  Absorbance, formation of formazan dyes (Means): 0.66
Diaphorase [17]; 3 h
  Absorbance, formation of formazan dyes (Means): 0.69
Diaphorase [17]; 4 h
  Absorbance, formation of formazan dyes (Means): 0.70
Diaphorase [17]; 6 h
  Absorbance, formation of formazan dyes (Means): 0.71
Diaphorase [17]; 8 h
  Absorbance, formation of formazan dyes (Means): 0.73
Diaphorase [17]; 10 h
  Absorbance, formation of formazan dyes (Means): 0.69
Diaphorase [17]; 12 h
  Absorbance, formation of formazan dyes (Means): 0.67
